Test results published in patent US20120245161A1 (SANOFI, priority 2009, published 2012).
Where a name gives a salt, the structure may show the parent alone.

Molecular target: T1, recombinant human beta tryptase (Homo sapiens, UniProt P20231)
T1 construct: made in house; host or cells: yeast cells
Assay: beta-Tryptase inhibition, chromogenic enzyme assay (substrate S2366, read at 405 nm)
Format: biochemical
Settings: Ki calculated from IC50: Ki=IC50/(1+[Substrate]/Km); 0.5 mM substrate, room temperature; read-out: Tryptase Ki
Text: Inhibition of this catalytic activity may be measured by the in vitro enzyme assay and the cellular assay.
Tryptase inhibition activity is confirmed using either isolated human lung tryptase or recombinant human beta tryptase expressed in yeast cells. Essentially equivalent results are obtained using isolated native enzyme or the expressed enzyme. The assay procedure employs a 96 well microplate (Costar 3590) using L-pyroglutamyl-L-prolyl-L-arginine-para-nitroanilide (S2366: Quadratech) as substrate (essentially as described by McEuen et. al. Biochem Pharm, 1996, 52, pages 331-340). Assays are performed at room temperature using 0.5 mM substrate (2×Km) and the microplate is read on a microplate reader (Beckman Biomek Plate reader) at 405 nm wavelength.
Materials and Methods for Tryptase primary screen (Chromogenic assay)
S2366 (Stock solutions of 2.5 mM).
Purified recombinant beta Tryptase Stocks of 310 μg/mL. Protocol (Single point determination) • Add 60 μL of diluted substrate (final concentration of 500 μM in assay buffer) to each well • Add compound in duplicates, final concentration of 20 volume 20 • Add enzyme at a final concentration of 50 ng/mL in a volume of 20 • Total volume for each well is 100 • Agitate briefly to mix and incubate at room temp in the dark for 30 minutes • Read absorbencies at […] Each plate has the following controls: • Totals: 60 μL of substrate, 20 μL of buffer (with 0.2% final concentration of DMSO), • 20 μL of enzyme Non-specific: 60 μL of substrate, 40 μL of buffer (with 0.2% DMSO) Totals: 60 μL of substrate, 20 μL of buffer (No DMSO), 20 μL of enzyme Non-specific: 60 μL of substrate, 40 μL of buffer (No DMSO) Protocol (IC50 and Ki determination)
The protocol is essentially the same as above except that the compound is added in duplicates at the following final concentrations: 0.01, 0.03, 0.1, 0.3, 1, 3, 10 μM (All dilutions carried out manually). For every assay, whether single point or IC50 determination, a standard compound is used to derive IC50 for comparison. From the IC50 value, the Ki can be calculated using the following formula: Ki=IC50/(1+[Substrate]/Km).

T1 sequence (P20231 31-275): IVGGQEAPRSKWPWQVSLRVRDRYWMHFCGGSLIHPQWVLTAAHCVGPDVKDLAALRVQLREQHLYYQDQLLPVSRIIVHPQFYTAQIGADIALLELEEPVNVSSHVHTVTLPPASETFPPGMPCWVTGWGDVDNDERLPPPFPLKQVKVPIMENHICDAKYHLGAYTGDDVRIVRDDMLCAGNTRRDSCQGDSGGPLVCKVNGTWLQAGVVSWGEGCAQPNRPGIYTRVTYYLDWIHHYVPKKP

| SMILES | Ki [nM] |
| --- | --- |
| COCCn1cc(C(=O)N2CCC(c3cc(CN)ccc3F)CC2)c2c(-c3ccnn3C)cccc21 [Example 89, [4-(5-Aminomethyl-2-fluoro-phenyl)-piperidin-1-yl]-[1-(2-methoxy-ethyl)-4-(2-methyl-2H-pyrazol-3-yl)-1H-indol-3-yl]-methanone dihydrochloride] | 11 |
| COCCn1cc(C(=O)N2CCC(c3cc(CN)ccc3F)CC2)c2c(-c3ccncc3)cccc21 [Example 56, [4-(5-Aminomethyl-2-fluoro-phenyl)-piperidin-1-yl]-[1-(2-methoxy-ethyl)-4-pyridin-4-yl-1H-indol-3-yl]-methanone] | 9 |
| NCc1ccc(F)c(C2CCN(C(=O)c3cn(CCN4CCCC4)c4ccccc34)CC2)c1 [Example 38, [4-(5-Aminomethyl-2-fluoro-phenyl)-piperidin-1-yl]-[1-(2-pyrrolidin-1-yl-ethyl)-1H-indol-3-yl]-methanone dihydrochloride] | 66 |
| NCc1ccc(F)c(C2CCN(C(=O)c3cn(CCOC(F)(F)F)c4cccc(-c5ccncc5)c34)CC2)c1 [Example 78, [4-(5-Aminomethyl-2-fluoro-phenyl)-piperidin-1-yl]-[4-pyridin-4-yl-1-(2-trifluoromethoxy-ethyl)-1H-indol-3-yl]-methanone dihydrochloride] | 117 |

Same assay, conditions: Tryptase Ki (nM), Ki calculated from IC50: Ki=IC50/(1+[Substrate]/Km); 0.5 mM substrate, room temperature

| SMILES | Ki [nM] |
| --- | --- |
| COCCn1cc(C(=O)N2CCC(c3cc(CN)ccc3OCC(N)=O)CC2)c2cccc(C)c21 [Example 31, 2-(4-Aminomethyl-2-{1-[1-(2-methoxy-ethyl)-7-methyl-1H-indole-3-carbonyl]-piperidin-4-yl}-phenoxy)-acetamide hydrochloride] | 306 |
| COCCn1cc(C(=O)N2CCC(c3cc(CN)ccc3F)CC2)c2c(NC(=O)c3cc4cccc(C)c4[nH]3)cccc21 [Example 121, 7-Methyl-1H-indole-2-carboxylic acid [3-[4-(5-aminomethyl-2-fluoro-phenyl)-piperidine-1-carbonyl]-1-(2-methoxy-ethyl)-1H-indol-4-yl]-amide dihydrochloride] | 99 |
| COCCn1cc(C(=O)N2CCC(c3cc(CN)ccc3F)CC2)c2c(-c3ccccc3)cccc21 [Example 60, [4-(5-Aminomethyl-2-fluoro-phenyl)-piperidin-1-yl]-[1-(2-methoxy-ethyl)-4-phenyl-1H-indol-3-yl]-methanone hydrochloride] | 22 |
| COCCn1cc(C(=O)N2CCC(c3cc(CN)ccc3C(F)F)CC2)c2cccc(C)c21 [Example 9, [4-(5-Aminomethyl-2-difluoromethyl-phenyl)-piperidin-1-yl]-[1-(2-methoxy-ethyl)-7-methyl-1H-indol-3-yl]-methanone hydrochloride] | 203 |
| NCc1ccc(F)c(C2CCN(C(=O)c3cn(CC(F)(F)c4ccccc4)c4ccccc34)CC2)c1 [Example 45, [4-(5-Aminomethyl-2-fluoro-phenyl)-piperidin-1-yl]-[1-(2,2-difluoro-2-phenyl-ethyl)-1H-indol-3-yl]-methanone hydrochloride] | 753 |
| COCCn1cc(C(=O)N2CCC(c3cc(CN)ccc3F)CC2)c2c(C(F)(F)F)cccc21 [Example 53, [4-(5-Aminomethyl-2-fluoro-phenyl)-piperidin-1-yl]-[1-(2-methoxy-ethyl)-4-trifluoromethyl-1H-indol-3-yl]-methanone hydrochloride] | 289 |
| COCCn1cc(C(=O)N2CCC(c3cc(CN)ccc3OCCc3ccccc3)CC2)c2cccc(C)c21 [Example 115, [4-(5-Aminomethyl-2-phenethyloxy-phenyl)-piperidin-1-yl]-[1-(2-methoxy-ethyl)-7-methyl-1H-indol-3-yl]-methanone hydrochloride] | 390 |
| COCCn1cc(C(=O)N2CCC(c3cc(CN)ccc3OCC(=O)OC)CC2)c2cccc(OC(F)(F)F)c21 [Example 24, (4-Aminomethyl-2-{1-[1-(2-methoxy-ethyl)-7-trifluoromethoxy-1H-indole-3-carbonyl]-piperidin-4-yl}-phenoxy)-acetic acid methyl ester hydrochloride] | 98 |
| COCCn1cc(C(=O)N2CCC(c3cc(CN)ccc3F)CC2)c2c(F)cccc21 [Example 51, [4-(5-Aminomethyl-2-fluoro-phenyl)-piperidin-1-yl]-[4-fluoro-1-(2-methoxy-ethyl)-1H-indol-3-yl]-methanone hydrochloride] | 54 |
| COCCn1cc(C(=O)N2CCC(c3cc(CN)c(F)cc3F)CC2)c2cccc(C)c21 [Example 111, [4-(5-Aminomethyl-2,4-difluoro-phenyl)-piperidin-1-yl]-[1-(2-methoxy-ethyl)-7-methyl-1H-indol-3-yl]-methanone hydrochloride] | 1020 |
| COCCn1cc(C(=O)N2CCC(c3cc(CN)ccc3F)CC2)c2c(C(=O)N3CCCCC3)cccc21 [Example 94, [4-(5-Aminomethyl-2-fluoro-phenyl)-piperidine-1-yl]-[1-(2-methoxy-ethyl)-4-(piperidine-1-carbonyl)-1H-indol-3-yl]-methanone hydrochloride] | 21 |
| COCCn1cc(C(=O)N2CCC(c3cc(CN)ccc3C(F)(F)F)CC2)c2cccc(C)c21 [Example 110, [4-(5-Aminomethyl-2-trifluoromethyl-phenyl)-piperidin-1-yl]-[1-(2-methoxy-ethyl)-7-methyl-1H-indol-3-yl]-methanone hydrochloride] | 1260 |
| COCCn1cc(C(=O)N2CCC(c3cc(CN)ccc3F)CC2)c2cccc(C#N)c21 [Example 18, 3-[4-(5-Aminomethyl-2-fluoro-phenyl)-piperidine-1-carbonyl]-1-(2-methoxy-ethyl)-1H-indole-7-carbonitrile] | 40 |
| COCCn1cc(C(=O)N2CCC(c3cc(CN)ccc3F)CC2)c2c(OC(F)(F)F)cccc21 [Example 54, [4-(5-Aminomethyl-2-fluoro-phenyl)-piperidin-1-yl]-[1-(2-methoxy-ethyl)-4-trifluoromethoxy-1H-indol-3-yl]-methanone hydrochloride] | 96 |
| NCc1ccc(F)c(C2CCN(C(=O)c3cn(CCOC(F)(F)F)c4cccc(-c5ccccc5)c34)CC2)c1 [Example 80, [4-(5-Aminomethyl-2-fluoro-phenyl)-piperidin-1-yl]-[4-phenyl-1-(2-trifluoromethoxy-ethyl)-1H-indol-3-yl]-methanone hydrochloride] | 961 |
| COCCn1cc(C(=O)N2CCC(c3cc(CN)ccc3F)CC2)c2cccc(C3CCC3)c21 [Example 19, [4-(5-Aminomethyl-2-fluoro-phenyl)-piperidin-1-yl]-[7-cyclobutyl-1-(2-methoxy-ethyl)-1H-indol-3-yl]-methanone hydrochloride] | 94 |
| COCCn1cc(C(=O)N2CCC(c3cc(CN)ccc3OCC(=O)N(C)C)CC2)c2cccc(OC(F)(F)F)c21 [Example 29, 2-(4-Aminomethyl-2-{1-[1-(2-methoxy-ethyl)-7-trifluoromethoxy-1H-indole-3-carbonyl]-piperidin-4-yl}-phenoxy)-N,N-dimethyl-acetamide hydrochloride] | 331 |
| COCCn1cc(C(=O)N2CCC(c3cc(CN)ccc3F)CC2)c2c(OC3CC3)cccc21 [Example 58, [4-(5-Aminomethyl-2-fluoro-phenyl)-piperidin-1-yl]-[4-cyclopropoxy-1-(2-methoxy-ethyl)-1H-indol-3-yl]-methanone hydrochloride] | 108 |
| COCCn1cc(C(=O)N2CCC(c3cc(F)cc(CN)c3)CC2)c2cccc(C)c21 [Example 116, [4-(5-Aminomethyl-3-fluoro-phenyl)-piperidin-1-yl]-[1-(2-methoxy-ethyl)-7-methyl-1H-indol-3-yl]-methanone hydrochloride] | 746 |
| COCCn1cc(C(=O)N2CCC(c3cc(CN)ccc3F)CC2)c2c(-c3ccc(F)cc3)cccc21 [Example 71, [4-(5-Aminomethyl-2-fluoro-phenyl)-piperidin-1-yl]-[4-(4-fluoro-phenyl)-1-(2-methoxy-ethyl)-1H-indol-3-yl]-methanone hydrochloride] | 49 |
| Cc1cccc2c(C(=O)N3CCC(c4cc(CN)ccc4F)CC3)cn(CCCN3CCOCC3)c12 [Example 7, [4-(5-Aminomethyl-2-fluoro-phenyl)-piperidin-1-yl]-[7-methyl-1-(3-morpholin-4-yl-propyl)-1H-indol-3-yl]-methanone hydrochloride] | 139 |
| NCc1ccc(F)c(C2CCN(C(=O)c3cn4c5c(cccc35)OCC4)CC2)c1 [Example 49, [4-(5-Aminomethyl-2-fluoro-phenyl)-piperidin-1-yl]-(2,3-dihydro-pyrrolo[1,2,3-de]-1,4-benzoxazin-6-yl)-methanone hydrochloride] | 291 |
